Assay results published in US12168020B2, “Method for ameliorating, preventing or treating muscular atrophy or sarcopenia by administering composition comprising 2′-fucosyllactose as active ingredient” (ADVANCED PROTEIN TECHNOLOGIES CORP., priority 2021, dated 2024).

Experiments:
C2C12 myotubes, MHC = assay: MHC expression analysis by immunocytochemical staining (myocyte differentiation); assay type: cell-based, mouse; details: C2C12, 2′-FL 100 and 200 μM, 24 hours, vs control group
Protocol: In order to differentiate mouse myoblasts into myotubes, the mouse myoblasts were seeded at a concentration of 4×10^5 cells/well in each well of a 6-well plate, cultured for 24 hours until confluence reached 100% and then 2% horse serum was added thereto. Then, the mouse myoblasts were differentiated for 6 days while exchanging the DMEM containing 2% horse serum with fresh DMEM every 2 days. Immunocytochemical staining was performed to determine the effect of treatment with 2′-FL on myocyte differentiation. Specifically, C2C12 was treated with 2′-FL at different concentrations (100 and 200 μM) for 24 hours, and then fixed with a 4% paraformaldehyde solution for 10 minutes. The fixed cells were washed with PBS containing 0.1% Triton X-100 and then reacted in 5% BSA solution for 1 hour. The cells were washed 3 times with 1×PBS again and then were allowed to react with an MHC antibody (Cell signaling) at room temperature overnight. After the reaction was completed, the cells were washed 3 times with PBS and reacted with Alexa Fluor 488 goat anti-rabbit IgG at room temperature for 1 hour, and then nuclei thereof were stained with a horchest solution and observed under a fluorescence microscope. At this time, the AMPK agonist A-769662 (1 μM) was used as a positive control.

C57BL/6 mice [1] = assay: Dexamethasone-induced muscular atrophy mouse model: body weight and plasma liver function test; assay type: in vivo; details: dexamethasone 10 mg/kg i.p., vs Veh
Protocol: (§1) In order to determine whether or not 2′-FL has a prophylactic effect against muscular atrophy in an animal model, 2′-FL was orally administered at a concentration of 200 or 400 mg/kg to 7-week-old male C57BL/6 mice for 7 days, followed by intraperitoneal injection of dexamethasone known as a drug inducing muscular atrophy at a concentration of 10 mg/kg, and at the same time, oral administration of 2′-FL for 2 weeks. At this time, the experiment was conducted on mouse experimental groups, namely, a Nor group that received intraperitoneal injection of saline and distilled water, a that received intraperitoneal injection of Veh group dexamethasone and was orally administered distilled water, and a 2FLL group and a 2FLH group that received intraperitoneal injection of dexamethasone and was orally administered 2′-FL at 200 mg/kg and 400 mg/kg, respectively.

atrogin-1 gene = assay: qPCR of muscular atrophy gene atrogin-1 after dexamethasone; assay type: cell-based, mouse; details: 2′-FL 100 or 200 μM, dexamethasone 400 μM 24 hours, vs dexamethasone group (Veh)
PGC-1α mRNA = assay: qPCR of mitochondrial biosynthesis gene PGC-1α; assay type: cell-based, mouse; details: C2C12, 2′-FL at a high concentration, vs control group
Excerpt: (§2) Mitochondria are organelles that have a main function of generating ATP, which is a form of intracellular energy, and perform various intracellular functions such as metabolism, signal transduction, apoptosis, and differentiation. Metabolic adaptation in skeletal muscle is achieved by the regulation of various genes, and PGC-1α (peroxisome proliferator-activated receptor-γ coactivator-1α) transcriptional cofactor is known to perform the most important role therefor. Accordingly, the mRNA expression changes of PGC-1α and the downstream gene thereof, NRF2, were determined upon treatment with 2′-FL.
(§3) For this purpose, CDNA was synthesized from RNA extracted from C2C12 cells using ReverTra Ace qPCR RT Kit (TOYOBO). In order to increase the efficiency of the reaction, the RNA was pre-heated at 65° C. for 5 minutes and then immediately stored on ice. Then, a total of 8 μl of reagent was prepared from 2 μl of 4×DN master mix containing a gDNA remover, 0.5 μg of mRNA, and nuclease-free water, and then was amplified at 37° C. for 5 minutes.
(§4) The reacted reagent was added with a 5×RT master mix, and amplified at 37° C. for 15 minutes, at 50° C. for 5 minutes, and at 98° C. for 5 minutes to synthesize cDNA. Then, the synthesized cDNA was subjected to qPCR using Thunderbird TMSYBR qPCR mix reagent (TOYOBO). The gene expression level was analyzed with the iQ5 Cycler System (Bio-Rad). […]

C57BL/6 mice [2] = assay: Dexamethasone-induced muscular atrophy mouse model: grip strength test; assay type: in vivo; details: 2′-FL 200 or 400 mg/kg oral, dexamethasone 10 mg/kg i.p., day before end of experiment, vs Veh
Protocol: as §1, with “respectively. All experimental animals were subjected to a grip strength test using a grip strength meter (Jeongdo Bio & Plant Co., Ltd.) the day before the end of the experiment.” for “respectively.”

[3] = tested on: C2C12, a mouse muscle (myoblast) cell line; assay: MTT assay, cytotoxicity of 2′-FL in C2C12; assay type: cell-based; details: C2C12, 2′-FL 100, 200, 400 μM, 24 hours, vs control group
Protocol: C2C12, a mouse muscle (myoblast) cell line, was cultured at 37° C. in the presence of 5% CO2 using a medium containing 90% DMEM, 10% FBS, and 10 unit/ml penicillin-streptomycin. In order to confirm the cytotoxicity of 2′-FL, the C2C12 cell line was seeded in each well of a 96-well plate at a concentration of 5×10^4 cells/well, cultured for 24 hours, and then treated with 2′-FL at various concentrations (100, 200, 400 μM) for 24 hours. Then, the medium was removed and a growth medium and 0.5 mg/ml of a diluted MTT solution were aliquoted in an amount of […] and incubated in a CO2 incubator. After 2 hours, the MTT reagent was removed, formazin was dissolved in DMSO (dimethyl sulfoxide), and absorbance was measured at 540 nm.

NRF2 mRNA = assay: qPCR of mitochondrial biosynthesis gene NRF2; assay type: cell-based, mouse; details: C2C12, 2′-FL at a high concentration, vs control group
Excerpt: as §2, §3, §4

MuRF1 gene = assay: qPCR of muscular atrophy gene MuRF1 after dexamethasone; assay type: cell-based, mouse; details: 2′-FL 100 or 200 μM, dexamethasone 400 μM 24 hours, vs dexamethasone group (Veh)
[4] = tested on: differentiated C2C12, mitochondria; assay: Mitochondrial function: mtDNA expression and mitochondrial density (MitoTracker); assay type: cell-based, mouse; details: differentiated C2C12, 2′-FL 100 and 200 μM, 24 hours, vs control group
Protocol: Mitochondria have mitochondrial DNA (mtDNA) that is isolated from their own nuclear DNA. […] Such damage to mtDNA causes a decrease in mitochondrial function, leading to a decrease in synthesis of ATP, which is an energy molecule required for cellular a decrease in the ability to regulate activity, and homeostasis in vivo, which eventually causes the onset of various diseases. Accordingly, mtDNA expression and mitochondrial density upon treatment with 2′-FL were measured. […] C2C12 was treated with 2′-FL at different concentrations (100 and 200 μM) for 24 hours, was washed with PBS, added with a medium containing 200 nM of a MitoTracker green probe and cultured for 30 minutes. Then, the portion bound to the MitoTracker green probe was quantified with SpectraMax that absorbs a wavelength of 490 nm and emits a wavelength of 516 nm to measure the density of mitochondria. At this time, the AMPK agonist A-769662 (1 μM) was used as a positive control.

[5] = tested on: differentiated C2C12 treated with dexamethasone, mitochondria; assay: Protection against dexamethasone-induced mitochondrial function inhibition; assay type: cell-based, mouse; details: 2′-FL 100 or 200 μM, dexamethasone 400 μM 24 hours, vs dexamethasone group
Protocol: Dexamethasone, a synthetic glucocorticoid, is known to decrease the rate of protein synthesis and increase the rate of protein degradation in muscles in vivo or in cultured cells. Accordingly, 1 hour after treatment of C2C12, which had been differentiated, with 2′-FL, C2C12 was treated with dexamethasone at a concentration of 400 μM for 24 hours to determine the muscular atrophy prevention effect of 2′-FL in a cell model. After treatment with dexamethasone, mtDNA expression and mitochondrial density were measured. […] In FIG. 6, 2FLL represents a group treated with 2′-FL at 100 μM, and 2FLH represent a group treated with 2′-FL at 200 μM.

atrogin-1 protein = assay: Dexamethasone-induced muscular atrophy mouse model: atrogin-1 immunoblotting of muscle tissue; assay type: in vivo; details: 2′-FL at a high concentration (400 mg/kg oral), dexamethasone 10 mg/kg i.p., vs Veh
Protocol: In order to determine whether or not 2′-FL has a prophylactic effect against muscular atrophy in an animal model, 2′-FL was orally administered at a concentration of 200 or 400 mg/kg to 7-week-old male C57BL/6 mice for 7 days, followed by intraperitoneal injection of dexamethasone known as a drug inducing muscular atrophy at a concentration of 10 mg/kg, and at the same time, oral administration of 2′-FL for 2 weeks. At this time, the experiment was conducted on mouse experimental groups, namely, a Nor group that received intraperitoneal injection of saline and distilled water, a that received intraperitoneal injection of Veh group dexamethasone and was orally administered distilled water, and a 2FLL group and a 2FLH group that received intraperitoneal injection of dexamethasone and was orally administered 2′-FL at 200 mg/kg and 400 mg/kg, respectively. Proteins were extracted by adding a Halt™ protease inhibitor to lysis buffer (10 mM Tris-HCl, pH 7.5, 1% NP-40, 0.1% sodium deoxycholate, 0.1% SDS, 150 mM NaCl, and 1 mM EDTA) in order to confirm protein expression using mouse muscle tissue and then immunoblotting was performed. As primary antibodies, anti-α-tubulin (1:1000) and anti-atrogin-1 (1:1000) were used. The resulting image of immunoblotting was analyzed using a ChemiDoc™ touch imaging system (Bio-Rad) and Image Lab 5.2 software (Bio-Rad).

[6] = tested on: differentiated C2C12 treated with dexamethasone; assay: Protection against dexamethasone-induced growth inhibition (trypan blue cell count); assay type: cell-based, mouse; details: 2′-FL high concentration (200 μM) 1 hour before dexamethasone 400 μM for 24 hours, vs dexamethasone group (Veh)
Protocol: Dexamethasone, a synthetic glucocorticoid, is known to decrease the rate of protein synthesis and increase the rate of protein degradation in muscles in vivo or in cultured cells. Accordingly, 1 hour after treatment of C2C12, which had been differentiated, with 2′-FL, C2C12 was treated with dexamethasone at a concentration of 400 μM for 24 hours to determine the muscular atrophy prevention effect of 2′-FL in a cell model. In order to evaluate the prophylactic effect of growth inhibition caused by treatment with dexamethasone, C2C12 was treated with 2′-FL and dexamethasone in the same manner as above, the cells were removed with trypsin, and the number of the cells was counted using trypan blue staining.

[7] = tested on: C57BL/6 mice, muscle tissue; assay: Dexamethasone-induced muscular atrophy mouse model: H&E muscle histology and muscle tissue weight; assay type: in vivo; details: 2FLH (2′-FL 400 mg/kg oral), dexamethasone 10 mg/kg i.p., vs Veh
Protocol: as §1, with “respectively. The mouse muscle tissue was stained using the H&E method and then histological morphology was observed.” for “respectively.”

[8] = tested on: C2C12 myotubes treated with dexamethasone; assay: Protection against dexamethasone-induced differentiation inhibition (myotube length and diameter); assay type: cell-based, mouse; details: 2′-FL high concentration (200 μM), dexamethasone 400 μM 24 hours, vs dexamethasone group (Veh)
Protocol: Dexamethasone, a synthetic glucocorticoid, is known to decrease the rate of protein synthesis and increase the rate of protein degradation in muscles in vivo or in cultured cells. Accordingly, 1 hour after treatment of C2C12, which had been differentiated, with 2′-FL, C2C12 was treated with dexamethasone at a concentration of 400 μM for 24 hours to determine the muscular atrophy prevention effect of 2′-FL in a cell model. Meanwhile, in order to evaluate the prophylactic effect of the differentiation inhibition caused by treatment with dexamethasone, the length and diameter of myotubes were measured after treatment with dexamethasone.

2′-fucosyllactose [2′-FL]
MHC expression (C2C12 myotubes, MHC): increased
length and thickness of myotubes (C2C12 myotubes, MHC): increased
mouse weight (C57BL/6 mice [1]; 2FLH (2′-FL 400 mg/kg oral), 3 weeks): increased
plasma GOT activity (C57BL/6 mice [1]; 2′-FL 200 or 400 mg/kg oral): lowered
plasma GPT activity (C57BL/6 mice [1]; 2′-FL 200 or 400 mg/kg oral): lowered
atrogin-1 gene expression (atrogin-1 gene): significantly decreased
expression of PGC-1α mRNA (PGC-1α mRNA): significantly increased
grip strength (C57BL/6 mice [2]): significantly increased
cell viability [3]: no difference in cell viability
expression of NRF2 mRNA (NRF2 mRNA): significantly increased
MuRF1 gene expression (MuRF1 gene): significantly decreased
mitochondrial density measured using the MitoTracker [4]: increased in a concentration-dependent manner
mtDNA expression [4]: significantly increased in a concentration-dependent manner
mitochondrial function (mtDNA expression and mitochondrial density) [5]: significantly increased
expression of atrogin-1 protein in muscle tissue (atrogin-1 protein): significantly decreased
number of cells [6]: significantly increased
muscular atrophy morphological characteristics (decreased muscle bundle size, imbalance in nuclear location), H&E [7]: ameliorated
weight of extensor digitorum longus [7]: significantly increased
weight of gastrocnemius muscle [7]: significantly increased
weight of muscle tissue (unspecified) [7]: significantly increased
diameter of myotubes [8]: significantly increased
length of myotubes [8]: significantly increased
